Test results reported in ChEMBL document CHEMBL1133987, “Broad spectrum antiprotozoal agents that inhibit histone deacetylase: structure-activity relationships of apicidin. Part 1” (Bioorg Med Chem Lett, 2001).
Converted amounts (≈) assume the structure as drawn.

Key:
Eimeria tenella = assay: Antiprotozoal activity (functional assay) using […] bovine kidney (MDBK) host cells infected with Eimeria tenella
Plasmodium falciparum = assay: In vitro antiprotozoal activity against Plasmodium falciparum 3D7 infected erythrocytes […]; assay type: functional, organism-based
Histone deacetylase [1] = assay: Inhibitory activity against histone deacetylase (HDAC) derived from partially purified extracts of human HeLa cells
HeLa = assay: Concentration for 50% inhibition of cell growth of human HeLa cells or foreskin fibroblasts in In vitro anti-proliferative functional assay
Histone deacetylase [2] = assay: Inhibitory activity against histone deacetylase (HDAC) derived from partially purified extracts of mammalian HeLa cells; parameters: species or system Homo sapiens

IC50 (Plasmodium falciparum) | IC50 (Histone deacetylase [1]) | IC50 (Histone deacetylase [2]) | Structure (SMILES) | MIC (Eimeria tenella) | AP50 (HeLa)
1 µg/mL (≈ 1.57 µM) | 1.45 µM | – | C=C(CC)CCCCC[C@@H]1NC(=O)[C@H]2CCCCN2CC(=O)[C@H]([C@@H](C)CC)NC(=O)[C@H](Cc2cn(OC)c3ccccc23)NC1=O | 1 µg/mL (≈ 1.57 µM) | –
0.61 µg/mL (≈ 0.978 µM) | 0.061 µM | – | CCCCCCCC[C@@H]1NC(=O)[C@H]2CCCCN2CC(=O)[C@H]([C@@H](C)CC)NC(=O)[C@H](Cc2cn(OC)c3ccccc23)NC1=O | 1 µg/mL (≈ 1.6 µM) | –
> 1 µg/mL | 0.144 µM | – | CCC(N)CCCCC[C@@H]1NC(=O)[C@H]2CCCCN2CC(=O)[C@H]([C@@H](C)CC)NC(=O)[C@H](Cc2cn(OC)c3ccccc23)NC1=O (some centres not stated) | > 1 µg/mL | –
0.85 µg/mL (≈ 1.23 µM) | 0.45 µM | – | CC[C@H](C)[C@@H]1NC(=O)[C@H](Cc2cn(OC)c3ccccc23)NC(=O)[C@H](CCCCCP(=O)(OC)OC)NC(=O)[C@H]2CCCCN2CC1=O | > 1 µg/mL | –
0.058 µg/mL (≈ 0.0909 µM) | 0.001 µM | – | CCC(=O)CCCCC[C@@H]1NC(=O)[C@H]2CCCCN2CC(=O)[C@H]([C@@H](C)CC)NC(=O)[C@H](Cc2cn(OC)c3ccccc23)NC1=O | 0.094 µg/mL (≈ 0.147 µM) | –
0.00024 µg/mL (≈ 0.000375 µM) | – | – | CC[C@H](C)[C@@H]1NC(=O)[C@H](Cc2cn(OC)c3ccccc23)NC(=O)[C@H](CCCCCC(=O)NO)NC(=O)[C@H]2CCCCN2CC1=O | > 0.5 µg/mL | –
< 0.015 µg/mL | < 0.0001 µM | – | CC[C@H](C)[C@@H]1NC(=O)[C@H](Cc2cn(OC)c3ccccc23)NC(=O)[C@H](CCCCCC(=O)C2CO2)NC(=O)[C@H]2CCCCN2CC1=O (some centres not stated) | 0.003 µg/mL (≈ 0.0046 µM) | –
1 µg/mL (≈ 1.53 µM) | 0.06 µM | – | CC[C@H](C)[C@@H]1NC(=O)[C@H](Cc2cn(OC)c3ccccc23)NC(=O)[C@H](CCCCCC2(CC)CO2)NC(=O)[C@H]2CCCCN2CC1=O (some centres not stated) | > 1 µg/mL | –
0.1 µg/mL (≈ 0.149 µM) | – | – | CCC(=O)CCCCC[C@@H]1/N=C(\S)[C@H]2CCCCN2CC(=O)[C@H]([C@@H](C)CC)/N=C(\S)[C@H](Cc2cn(OC)c3ccccc23)NC1=O | 0.125 µg/mL (≈ 0.187 µM) | 1000 ng/mL
0.1 µg/mL (≈ 0.149 µM) | – | – | CCC(=O)CCCCC[C@@H]1NC(=O)[C@H]2CCCCN2CC(=O)[C@H]([C@@H](C)CC)/N=C(\S)[C@H](Cc2cn(OC)c3ccccc23)N=C1S | 0.125 µg/mL (≈ 0.187 µM) | 1000 ng/mL
0.21 µg/mL (≈ 0.328 µM) | 0.0004 µM | – | CC[C@H](C)[C@@H]1NC(=O)[C@H](Cc2cn(OC)c3ccccc23)NC(=O)[C@H](CCCCCC(=O)OC)NC(=O)[C@H]2CCCCN2CC1=O | > 1 µg/mL | –
1 µg/mL (≈ 1.6 µM) | 2 µM | – | CC[C@H](C)[C@@H]1NC(=O)[C@H](Cc2cn(OC)c3ccccc23)NC(=O)[C@H](CCCCNC(C)=O)NC(=O)[C@H]2CCCCN2CC1=O | > 1 µg/mL | –
> 1 µg/mL | 0.18 µM | – | CC[C@H](C)[C@@H]1NC(=O)[C@H](Cc2cn(OC)c3ccccc23)NC(=O)[C@H](CCCCCP(=O)([O-])O)NC(=O)[C@H]2CCCCN2CC1=O.[K+] | > 1 µg/mL | –
0.5 µg/mL (≈ 0.765 µM) | 0.007 µM | – | CC[C@H](C)[C@@H]1NC(=O)[C@H](Cc2cn(OC)c3ccccc23)NC(=O)[C@H](CCCCCCC(=O)OC)NC(=O)[C@H]2CCCCN2CC1=O | > 1 µg/mL | –
0.7 µg/mL (≈ 1.07 µM) | 0.018 µM | – | CCC(=O)C(=O)CCCC[C@@H]1NC(=O)[C@H]2CCCCN2CC(=O)[C@H]([C@@H](C)CC)NC(=O)[C@H](Cc2cn(OC)c3ccccc23)NC1=O | 0.313 µg/mL (≈ 0.48 µM) | –
> 1 µg/mL | 0.848 µM | – | CC[C@H](C)[C@@H]1NC(=O)[C@H](Cc2cn(OC)c3ccccc23)NC(=O)[C@H](CCCCCCC(=O)O)NC(=O)[C@H]2CCCCN2CC1=O | > 1 µg/mL | –
0.022 µg/mL (≈ 0.0336 µM) | 0.0003 µM | – | CC[C@H](C)[C@@H]1NC(=O)[C@H](Cc2cn(OC)c3ccccc23)NC(=O)[C@H](CCCCCC(=O)C(C)O)NC(=O)[C@H]2CCCCN2CC1=O (some centres not stated) | 0.008 µg/mL (≈ 0.0122 µM) | –
0.028 µg/mL (≈ 0.0427 µM) | 0.001 µM | – | CC[C@H](C)[C@@H]1NC(=O)[C@H](Cc2cn(OC)c3ccccc23)NC(=O)[C@H](CCCCCC(=O)C(C)F)NC(=O)[C@H]2CCCCN2CC1=O (some centres not stated) | 0.062 µg/mL (≈ 0.0945 µM) | –

IC50 (Plasmodium falciparum) | IC50 (Histone deacetylase [1]) | IC50 (Histone deacetylase [2]) | Structure (SMILES) | MIC (Eimeria tenella) | AP50 (HeLa)
0.9 µg/mL (≈ 1.38 µM) | 0.03 µM | – | CC[C@H](C)[C@@H]1NC(=O)[C@H](Cc2cn(OC)c3ccccc23)NC(=O)[C@H](CCCCCC(=O)C(C)=O)NC(=O)[C@H]2CCCCN2CC1=O | 0.25 µg/mL (≈ 0.384 µM) | –
– | 0.039 µM | – | CCC(=O)C(O)CCCC[C@@H]1NC(=O)[C@H]2CCCCN2CC(=O)[C@H]([C@@H](C)CC)NC(=O)[C@H](Cc2cn(OC)c3ccccc23)NC1=O (some centres not stated) | 1 µg/mL (≈ 1.53 µM) | –
0.7 µg/mL (≈ 1.07 µM) | 0.11 µM | – | CCC(=O)C(F)CCCC[C@@H]1NC(=O)[C@H]2CCCCN2CC(=O)[C@H]([C@@H](C)CC)NC(=O)[C@H](Cc2cn(OC)c3ccccc23)NC1=O (some centres not stated) | 0.313 µg/mL (≈ 0.477 µM) | –
> 1 µg/mL | 0.015 µM | – | CC[C@H](C)[C@@H]1NC(=O)[C@H](Cc2cn(OC)c3ccccc23)NC(=O)[C@H](CCCCCC(=O)O)NC(=O)[C@H]2CCCCN2CC1=O | 1 µg/mL (≈ 1.6 µM) | –
– | 0.282 µM | – | CC[C@H](C)[C@@H]1NC(=O)[C@H](Cc2cn(OC)c3ccccc23)NC(=O)[C@H](CCCCC(=O)O)NC(=O)[C@H]2CCCCN2CC1=O | > 1 µg/mL | –
> 1 µg/mL | 0.074 µM | – | CC[C@H](C)[C@@H]1NC(=O)[C@H](Cc2cn(OC)c3ccccc23)NC(=O)[C@H](CCCCC(=O)OC)NC(=O)[C@H]2CCCCN2CC1=O | > 1 µg/mL | –
0.5 µg/mL (≈ 0.82 µM) | 0.006 µM | – | CC[C@H](C)[C@@H]1NC(=O)[C@H](Cc2cn(OC)c3ccccc23)NC(=O)[C@H](CCCCCC=O)NC(=O)[C@H]2CCCCN2CC1=O | 1 µg/mL (≈ 1.64 µM) | –
0.055 µg/mL (≈ 0.0882 µM) | 0.002 µM | – | CC[C@H](C)[C@@H]1NC(=O)[C@H](Cc2cn(OC)c3ccccc23)NC(=O)[C@H](CCCCCC(C)=O)NC(=O)[C@H]2CCCCN2CC1=O | 0.125 µg/mL (≈ 0.2 µM) | –
> 1 µg/mL | 0.11 µM | – | CC[C@H](C)[C@@H]1NC(=O)[C@H](Cc2cn(OC)c3ccccc23)NC(=O)[C@H](CCCCSC(C)=O)NC(=O)[C@H]2CCCCN2CC1=O | > 1 µg/mL | –
> 1 µg/mL | 0.326 µM | – | CC[C@H](C)[C@@H]1NC(=O)[C@H](Cc2cn(OC)c3ccccc23)NC(=O)[C@H](CCCCCSC)NC(=O)[C@H]2CCCCN2CC1=O | > 1 µg/mL | –
0.35 µg/mL (≈ 0.537 µM) | 0.005 µM | – | CCC(=O)C1OC1CCC[C@@H]1NC(=O)[C@H]2CCCCN2CC(=O)[C@H]([C@@H](C)CC)NC(=O)[C@H](Cc2cn(OC)c3ccccc23)NC1=O (some centres not stated) | 0.15 µg/mL (≈ 0.23 µM) | –
0.35 µg/mL (≈ 0.51 µM) | 0.7 µM | – | CC[C@H](C)[C@@H]1NC(=O)[C@H](Cc2cn(OC)c3ccccc23)NC(=O)[C@H](CCCCCC(=O)c2ccccc2)NC(=O)[C@H]2CCCCN2CC1=O | 1 µg/mL (≈ 1.46 µM) | –
0.1 µg/mL (≈ 0.153 µM) | – | 0.085 µM | CCC(=O)CCCCC[C@@H]1NC(=O)[C@H]2CCCCN2CC(=O)[C@H]([C@@H](C)CC)/N=C(\S)[C@H](Cc2cn(OC)c3ccccc23)NC1=O | 0.125 µg/mL (≈ 0.191 µM) | 1000 ng/mL
0.59 µg/mL (≈ 0.845 µM) | – | – | CCC(CCCCC[C@@H]1NC(=O)[C@H]2CCCCN2CC(=O)[C@H]([C@@H](C)CC)NC(=O)[C@H](Cc2cn(OC)c3ccccc23)NC1=O)SC(C)=O (some centres not stated) | 0.25 µg/mL (≈ 0.358 µM) | –
0.9 µg/mL (≈ 1.37 µM) | 0.003 µM | – | CC[C@H](C)[C@@H]1NC(=O)[C@H](Cc2cn(OC)c3ccccc23)NC(=O)[C@H](CCCCCSC(C)=O)NC(=O)[C@H]2CCCCN2CC1=O | 1 µg/mL (≈ 1.52 µM) | –
0.5 µg/mL (≈ 0.767 µM) | 0.235 µM | – | CC[C@H](C)[C@@H]1NC(=O)[C@H](Cc2cn(OC)c3ccccc23)NC(=O)[C@H](CCCCCC(=O)C(C)C)NC(=O)[C@H]2CCCCN2CC1=O | 0.75 µg/mL (≈ 1.15 µM) | –
0.15 µg/mL (≈ 0.23 µM) | 0.001 µM | – | CCCC(=O)CCCCC[C@@H]1NC(=O)[C@H]2CCCCN2CC(=O)[C@H]([C@@H](C)CC)NC(=O)[C@H](Cc2cn(OC)c3ccccc23)NC1=O | 0.125 µg/mL (≈ 0.192 µM) | –
